Measured values from US9944666B2, “Compounds that are S1P modulating agents and/or ATX modulating agents” (BIOGEN MA INC., priority 2012, dated 2018).

Target: T1, Human ATX protein (Homo sapiens, UniProt Q13822)
T1 construct: made in house
Assay: ATX biochemical FRET assay with FS-3 substrate
Conditions: FS-3 2 μM, ATX 1.0 μg/mL, room temperature 2 hours, fluorescence 485/538 nm
Excerpt: ATX (Autotaxin) is a 125 KDa glycoprotein with lysophospholipase D (LPLD) activity that generates the bioactive lipid lysophosphatidic acid (LPA) from lysophosphatidylcholine (LPC). The ATX biochemical assay utilizes a FRET (fluorescence resonance energy transfer) technology platform. The fluorescence signal of FRET substrate FS-3 is quenched due to intra-molecular FRET of a fluorophore to a non-fluorescing quencher (Ferguson, C. G., et al., Org Lett. 2006 May 11; 8(10): 2023-2026, which is incorporated by reference in its entirety). ATX catalyzes the hydrolysis of the substrate which separates the dabsyl quencher from the fluorescein reporter, which becomes fluorescent. The reaction is monitored by a SpectraMax M5 (Molecular Devices, Sunnyvale, Calif.) with at excitation wavelength 485 nm and emission wavelength […].
Fatty acid free-BSA (Sigma A8806): 10 mg/ml, in H2O, stored at 4° C.
2×ATX assay buffer: 100 mM Tris, 280 mM NaCl, 10 mM KCl, 2 mM CaCl2, 2 mM MgCl2, pH 7.4.
Human ATX protein: expressed and purified in house. Stored at −80° C.
Substrate FS-3 (Echelon, L-2000): 100 μg in 77.74 μL H2O (1 mM stock), stored at −20° C.
384-well flat bottom plates—Corning #3575.
Compound dilution—All compounds were provided at 10 mM in 100% DMSO. In the first well, 2 μL of 10 mM compound was added to 78 μL of DMSO (1:40 dilution). In subsequent wells 3-fold dilution (total 10 dilutions) were performed.
1×ATX assay buffer was made up with a final concentration of 1 mg/mL fatty acid free-BSA using 2×ATX assay buffer, 10 mg/ml fatty acid free-BSA and ddH2O.
ATX protein was diluted with 1×ATX assay buffer to a concentration of 1.32 μg/mL (1.32×). 38 μL was added per well to the assay plate. The final concentration of ATX in the reaction as 1.0 μg/mL.
2 μL per well of compounds was transferred to provide the desired concentration. The plate was centrifuged, then incubated at room temperature for 30 minutes on the shaker.
FS-3 was diluted with 1×ATX assay buffer to a concentration of FS-3 of 10 μM (5×). Then, 10 μL was added per well to the assay plate. The final concentration of FS-3 in the reaction was 2 μM. The plate was centrifuged. The plate was kept shaking at room temperature for 2 hours. Because FS-3 substrate is light sensitive, plates were kept covered and protected from light.
Fluorescence was measured using SpectraMax M5 (excitation at 485 nm/emission at 538 nm, top read).

Compound	IC50 [nM]
CC(c1ccc2c(C(F)(F)F)c(O[C@H]3CC[C@@H](C)CC3)ccc2c1)N1C2CCC1CC(C(=O)O)C2 (single isomer, unassigned; enantiomer 2) [Example 131, 8-(1-(6-((cis-4-Methylcyclohexyl)oxy)-5-(trifluoromethyl)naphthalen-2-yl)ethyl)-8-azabicyclo[3.2.1]octane-3-carboxylic acid, enantiomer 2]	≤ 100
CC[C@H]1CC[C@@H](Oc2ccc3cc(C(=O)N4C5CCCC4CC(C(=O)O)C5)ccc3c2C(F)(F)F)CC1 (stereo partly drawn) [Example 224, 9-(6-((cis-4-ethylcyclohexyl)oxy)-5-(trifluoromethyl)-2-naphthoyl)-9-azabicyclo[3.3.1]nonane-3-carboxylic acid]	≤ 100
C[C@H]1CC[C@@H](Oc2ccc3cc(CN4C5CCC4CC(C(=O)O)C5)ccc3c2C(F)F)CC1 (relative stereo) [Example 134, 8-(1-(5-(difluoromethyl)-6-((cis-4-methylcyclohexyl)oxy)naphthalen-2-yl)methyl)-8-azabicyclo[3.2.1]octane-3-carboxylic acid]	≤ 100
O=C(O)C1CC2CCC(C1)C2NCc1ccc2c(C(F)(F)F)c(O[C@H]3CC[C@@H](C(F)(F)F)CC3)ccc2c1 (single isomer, unassigned; enantiomer 1) [Example 162, N-(5-trifluoromethyl-6-(cis-4-trifluoromethyl-cyclohexyloxy)-naphthalen-2-ylmethyl)-8-aminobicyclo[3.2.1]octane-3-carboxylic acid, enantiomer 1]	≤ 250
O=C(O)C1CC2CCCC(C1)N2Cc1ccc2c(C(F)F)c(O[C@H]3CC[C@@H](C(F)(F)F)CC3)ccc2c1 (stereo partly drawn) [Example 100, 9-((5-(difluoromethyl)-6-((cis-4-(trifluoromethyl)cyclohexyl)oxy)naphthalene-2-yl)methyl)-9-azabicyclo[3.3.1]nonane-3-carboxylic acid]	≤ 100
CC[C@H]1CC[C@@H](Oc2ccc3cc(C(C)N4C5CCCC4CC(C(=O)O)C5)ccc3c2Cl)CC1 (relative stereo) [Example 182, 9-(1-(6-((cis-4-ethylcyclohexyl)oxy)-5-chloronaphthalen-2-yl)ethyl)-9-azabicyclo[3.3.1]nonane-3-carboxylic acid]	≤ 100
CC(c1ccc2c(C(F)(F)F)c(O[C@H]3CC[C@@H](C(F)(F)F)CC3)ccc2n1)N1C2CCC1CC(C(=O)O)C2 (stereo partly drawn) [Example 102, 8-(1-(5-(trifluoromethyl)-6-((cis-4-(trifluoromethyl)cyclohexyl)oxy)quinolin-2-yl)ethyl)-8-azabicyclo[3.2.1]octane-3-carboxylic acid]	≤ 100
CC[C@H]1CC[C@@H](Oc2ccc3cc([C@H](C)N4C5CCC4CC(C(=O)O)C5)ccc3c2C(F)(F)F)CC1 (single isomer, unassigned) [Example 290]	≤ 100
CC[C@@H](c1ccc2c(C(F)(F)F)c(O[C@H]3CC[C@@H](C(F)(F)F)CC3)ccc2c1)N1C2CCCC1CC(C(=O)O)C2 (single isomer, unassigned) [Example 296]	≤ 100
CC(c1ccc2c(C(F)(F)F)c(O[C@H]3CC[C@@H](C(F)(F)F)CC3)ccc2c1)N1C2CCCC1CC(C(=O)O)C2 (stereo partly shown) [Example 88]	≤ 100
CC[C@H]1CC[C@@H](Oc2ccc3cc(CN4C5CCCC4CC(C(=O)O)C5)ccc3c2)CC1 (stereo partly drawn) [Example 83, 9-((6-((cis-4-ethylcyclohexyl)oxy)naphthalen-2-yl)methyl)-9-azabicyclo[3.3.]nonane-3-carboxylic acid]	≤ 500
CC(c1ccc2c(Cl)c(O[C@H]3CC[C@@H](C)CC3)ccc2c1)N1C2CCCC1CC(C(=O)O)C2 (stereo partly drawn) [Example 214, 9-(1-(5-chloro-6-((cis-4-methylcyclohexyl)oxy)naphthalen-2-yl)ethyl)-9-azabicyclo[3.3.1]nonane-3-carboxylic acid]	≤ 100
O=C(O)C1CC2CCCC(C1)N2C(=O)c1ccc2c(Cl)c(O[C@H]3CC[C@@H](C(F)(F)F)CC3)ccc2c1 (stereo partly drawn) [Example 201, 9-(5-chloro-6-((cis-4-(trifluoromethyl)cyclohexyl)oxy)-2-naphthoyl)-9-azabicyclo[3.3.1]nonane-3-carboxylic acid]	≤ 250
O=C1CC2CC(C(=O)O)CC(C1)N2Cc1ccc2c(C(F)(F)F)c(O[C@H]3CC[C@@H](C(F)(F)F)CC3)ccc2c1 (relative stereo) [Example 170, 9-(5-trifluoromethyl-6-(cis-4-trifluoromethyl-cyclohexyloxy)-naphthalen-2-ylmethyl)-7-oxo-9-azabicyclo[3.3.1]nonane-3-carboxylic acid]	≤ 500
CC[C@H]1CC[C@@H](Oc2ccc3cc(CN4C5CCCC4CC(C(=O)O)C5)ccc3c2Cl)CC1 (stereo partly drawn) [Example 110, 9-((5-Chloro-6-((cis-4-ethylcyclohexyl)oxy)naphthalen-2-yl)methyl)-9-azabicyclo[3.3.1]nonane-3-carboxylic acid]	≤ 100
O=C(O)C1CC2CCCC(C1)N2C(=O)c1ccc2c(C(F)(F)F)c(N[C@H]3CC[C@@H](C(F)(F)F)CC3)ccc2c1 (stereo partly drawn) [Example 245, 9-(5-(trifluoromethyl)-6-((cis-4-(trifluoromethyl)cyclohexyl)amino)-2-naphthoyl)-9-azabicyclo[3.3.1]nonane-3-carboxylic acid]	≤ 100
CC(c1ccc2c(C(F)(F)F)c(O[C@H]3CC[C@@H](C)CC3)ccc2c1)N1C2CCCC1CC(C(=O)O)C2 (stereo partly drawn) [Example 93, 9-(1-(6-((cis-4-Methylcyclohexyl)oxy)-5-(trifluoromethyl)naphthalen-2-yl)ethyl)-9-azabicyclo[3.3.1]nonane-3-carboxylic acid]	≤ 100
CC[C@@H](c1ccc2c(Cl)c(O[C@H]3CC[C@@H](CC)CC3)ccc2c1)N1C2CCCC1CC(C(=O)O)C2 (single isomer, unassigned) [Example 249]	≤ 100
O=C(O)C1CC2CCCC(C1)N2Cc1ccc2c(C(F)(F)F)c(O[C@H]3CC[C@@H](C(F)(F)F)CC3)ccc2n1 (stereo partly drawn) [Example 101, 9-((5-(trifluoromethyl)-6-((cis-4-(trifluoromethyl)cyclohexyl)oxy)quinolin-2-yl)methyl)-9-azabicyclo[3.3.1]nonane-3-carboxylic acid]	≤ 100
CCC(c1ccc2c(Cl)c(O[C@H]3CC[C@@H](C(F)(F)F)CC3)ccc2c1)N1C2CCC1CC(C(=O)O)C2 (stereo partly drawn) [Example 202, 8-(1-(5-chloro-6-((cis-4-(trifluoromethyl)cyclohexyl)oxy)naphthalen-2-yl)propyl)-8-azabicyclo[3.2.1]octane-3-carboxylic acid]	≤ 100
C[C@H]1CC[C@@H](Oc2ccc3cc(CN4C5CCCC4CC(C(=O)O)C5)ccc3c2C#N)CC1 (stereo partly drawn) [Example 207, 9-((5-cyano-6-((cis-4-methylcyclohexyl)oxy)naphthalen-2-yl)methyl)-9-azabicyclo[3.3.1]nonane-3-carboxylic acid]	≤ 100
CC(c1ccc2c(C(F)(F)F)c(O[C@H]3CC[C@@H](C(C)(F)F)CC3)ccc2c1)N1C2CCC1CC(C(=O)O)C2 (stereo partly drawn) [Example 216, 8-(1-(6-((cis-4-(1,1-difluoroethyl)cyclohexyl)oxy)-5-(trifluoromethyl)naphthalen-2-yl)ethyl)-8-azabicyclo[3.2.1]octane-3-carboxylic acid]	≤ 100
CC1(C)C2CCC1(C(=O)O)C(NCc1ccc3c(C(F)(F)F)c(O[C@H]4CC[C@@H](C(F)(F)F)CC4)ccc3c1)C2 (relative stereo) [Example 123, 3-(((5-(trifluoromethyl)-6-((cis-4-(trifluoromethyl)cyclohexyl)oxy)naphthalen-2-yl)methyl)amino)-7,7-dimethylbicyclo[2.2.1]heptane-4-carboxylic acid]	≤ 500
C[C@H]1CC[C@@H](Oc2ccc3cc(CN4C5CC(O)CC4CC(C(=O)O)C5)ccc3c2C(F)(F)F)CC1 (relative stereo) [Example 129, 9-((6-((cis-4-Methylcyclohexyl)oxy)-5-(trifluoromethyl)naphthalen-2-yl)methyl)-7-hydroxy-9-aza-bicyclo[3.3.1]nonane-3-carboxylic acid]	≤ 500
CC[C@H]1CC[C@@H](Oc2ccc3cc(CN4C5CCCC4CC(C(=O)O)C5)ccc3c2C(F)(F)F)CC1 (relative stereo) [Example 171, 9-((6-((cis-4-ethylcyclohexyl)oxy)-5-(trifluoromethyl)naphthalen-2-yl)methyl)-9-azabicyclo[3.3.1]nonane-3-carboxylic acid]	≤ 100
